{
  "source": "ChEMBL document CHEMBL5352473",
  "about": "“Design, synthesis, biological evaluation and crystal structure determination of dual modulators of carbonic anhydrases and estrogen receptors” (Eur J Med Chem, 2023)",
  "key": {"Carbonic anhydrase 1": {"biological_target": "Carbonic anhydrase 1 (Homo sapiens, UniProt P00915)", "sequence (P00915 whole entry)": "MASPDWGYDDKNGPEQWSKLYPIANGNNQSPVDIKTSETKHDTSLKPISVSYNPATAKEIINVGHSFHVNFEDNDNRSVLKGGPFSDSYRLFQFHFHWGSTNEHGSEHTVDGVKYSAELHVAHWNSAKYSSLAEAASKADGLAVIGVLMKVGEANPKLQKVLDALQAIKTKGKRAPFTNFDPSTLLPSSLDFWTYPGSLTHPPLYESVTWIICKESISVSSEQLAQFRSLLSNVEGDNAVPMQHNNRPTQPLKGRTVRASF", "assay": "Binding affinity to human CA1 assessed as inhibition constant incubated for 6 hrs by phenol red dye based stopped flow CO2 hydration assay"}, "Carbonic anhydrase 2": {"biological_target": "Carbonic anhydrase 2 (Homo sapiens, UniProt P00918)", "assay": "Binding affinity to human CA2 assessed as inhibition constant incubated for 6 hrs by phenol red dye based stopped flow CO2 hydration assay"}, "Carbonic anhydrase 9": {"biological_target": "Carbonic anhydrase 9 (Homo sapiens, UniProt Q16790)", "description": "Binding affinity to human CA9 assessed as inhibition constant incubated for 6 hrs by phenol red dye based stopped flow CO2 hydration assay"}, "Carbonic anhydrase 12": {"biological_target": "Carbonic anhydrase 12 (Homo sapiens, UniProt O43570)", "sequence (O43570 whole entry)": "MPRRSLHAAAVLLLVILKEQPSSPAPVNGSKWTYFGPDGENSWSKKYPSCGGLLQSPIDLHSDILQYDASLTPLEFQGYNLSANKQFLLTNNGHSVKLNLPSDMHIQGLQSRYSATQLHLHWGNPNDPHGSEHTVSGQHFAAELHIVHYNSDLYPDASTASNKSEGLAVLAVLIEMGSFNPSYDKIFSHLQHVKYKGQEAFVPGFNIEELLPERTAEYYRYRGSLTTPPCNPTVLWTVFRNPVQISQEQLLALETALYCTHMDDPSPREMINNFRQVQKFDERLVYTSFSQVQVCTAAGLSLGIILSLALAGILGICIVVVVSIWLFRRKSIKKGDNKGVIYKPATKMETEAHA", "assay": "Binding affinity to human CA12 assessed as inhibition constant incubated for 6 hrs by phenol red dye based stopped flow CO2 hydration assay"}, "[1]": {"biological_target": "Estrogen receptor beta (Homo sapiens) (UniProt Q92731)", "sequence (Q92731 whole entry)": "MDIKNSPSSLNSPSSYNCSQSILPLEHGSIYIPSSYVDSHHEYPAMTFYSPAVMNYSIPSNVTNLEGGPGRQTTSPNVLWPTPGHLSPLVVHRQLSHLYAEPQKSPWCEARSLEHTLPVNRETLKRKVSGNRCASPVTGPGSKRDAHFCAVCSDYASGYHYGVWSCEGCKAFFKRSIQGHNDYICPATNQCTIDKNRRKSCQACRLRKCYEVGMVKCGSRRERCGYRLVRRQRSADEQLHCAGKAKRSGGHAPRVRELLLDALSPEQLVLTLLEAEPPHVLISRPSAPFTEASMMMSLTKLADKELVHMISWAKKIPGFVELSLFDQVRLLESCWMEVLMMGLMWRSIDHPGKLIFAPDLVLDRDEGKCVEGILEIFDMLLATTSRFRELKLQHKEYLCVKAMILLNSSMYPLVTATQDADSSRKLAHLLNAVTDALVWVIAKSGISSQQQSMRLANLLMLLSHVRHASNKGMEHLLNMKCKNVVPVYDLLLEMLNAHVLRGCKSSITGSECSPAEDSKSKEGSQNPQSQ", "assay": "Partial agonist activity at wild type human ERbeta in HEK-293T cells transfected with 3xERE-driven luciferase reporter plasmid by luciferase reporter gene assay", "format": "cell-based"}},
  "note": "The source made the active and inactive calls. The rule behind the calls is not given here.",
  "data": [
    {"smiles": "NS(=O)(=O)c1ccc2c(c1)C1C=CCC1C(c1ccccc1Cl)N2", "note": "(racemic)", "values": [
      {"measurement": "Ki", "setting": "Carbonic anhydrase 1", "value": 73.6, "unit": "nM"},
      {"measurement": "Ki", "setting": "Carbonic anhydrase 2", "value": 2.2, "unit": "nM"},
      {"measurement": "Ki", "setting": "Carbonic anhydrase 9", "value": 2090, "unit": "nM"},
      {"measurement": "Ki", "setting": "Carbonic anhydrase 12", "value": 256, "unit": "nM"},
      {"measurement": "Activity", "setting": "[1]", "value": "inactive"}
    ]}
  ]
}
